Numbered stars: 1 amine (or outer) side, 2 acyl side, 3 side chain; on linkers, the order of the positions; unused ones are H or OH. Bridge positions count the residues as written; N and C are the ends. Square brackets hold non-standard residues; d marks the D form. Peptide text beside a SMILES is read from it. * marks the point of attachment. 1,2,3Thiadiazole5CO(4-Me) = Cc1nnsc1C(=O)*; Phenoxyacetyl = O=C(COc1ccccc1)*; Cysteamide = C(CS[*:3])N[*:1]; Isovaleryl = CC(C)CC(=O)*; Mpa = O=C(O)CCS
The compounds below were run against T1, thrombin (Homo sapiens, UniProt P00734) (assay: Thrombin inhibition screen of crude macrocycle reactions (residual thrombin activity, fluorogenic substrate Z-Gly-Gly-Arg-AMC)). Details: 10 µM macrocycle concentration; crude reactions, Library 1a-l; scaffold AA1-AA2-AA3 combined with 1-16 or '-'.
T1 construct: consists of two polypeptide chains of 36 (light chain) and 259 amino acid
Assay type: biochemical
How it was run: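 Residual activity was measured as the AMC release rate after adding 50 μM Z-Gly-Gly-Arg-AMC. This followed a 10-min room-temperature preincubation of 2 nM thrombin with 10 μM single macrocycles in pH 7.4 Tris buffer (0.6% DMSO). Percent inhibition was taken against the mean slope of DMSO controls.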

| SMILES | percent residual thrombin activity |
| --- | --- |
| CC(C)CC(=O)NCCCC[C@@H]1NC(=O)[C@H](CC(C)C)NC(=O)CCSSCCNC(=O)[C@@H]2CCCN2C1=O [L-D1-B1/8] ([Mpa]LK(Isovaleryl)P-Cysteamide; disulfide 1-C) | 109.409% |
| CC(C)C[C@@H]1NC(=O)CCSSCCNC(=O)[C@@H]2CCCN2C(=O)[C@H](CCCCNC(=O)COc2ccccc2)NC1=O [L-D1-B1/13] ([Mpa]LK(Phenoxyacetyl)P-Cysteamide; disulfide 1-C) | 112.403% |
| Cc1nnsc1C(=O)NCCCC[C@@H]1NC(=O)[C@H](CC(C)C)NC(=O)CCSSCCNC(=O)[C@@H]2CCCN2C1=O [L-D1-B1/15] ([Mpa]LK(1,2,3Thiadiazole5CO(4-Me))P-Cysteamide; disulfide 1-C) | 110.815% |
| NC(=O)CC[C@@H]1NC(=O)CCSSCCNC(=O)[C@H]2CCCN(C2)C(=O)[C@H](CCCCNC(=O)COc2ccccc2)NC1=O [Q-D1-B4/13] | 120.491% |
| O=C1CCSSCCNC(=O)[C@H](CCCNC(=O)c2ccccc2)NC(=O)c2ccc(cc2)CNC(=O)[C@H](CO)N1 [S-B3-D2/1] | 105.629% |
| CC(C)CC(=O)NCCC[C@@H]1NC(=O)c2ccc(cc2)CNC(=O)[C@H](CO)NC(=O)CCSSCCNC1=O [S-B3-D2/8] | 113.923% |
| O=C(Cc1c[nH]c2ccccc12)NCCC[C@@H]1NC(=O)c2ccc(cc2)CNC(=O)[C@H](CO)NC(=O)CCSSCCNC1=O [S-B3-D2/12] | 111.94% |
| O=C(COc1ccccc1)NCCC[C@@H]1NC(=O)c2ccc(cc2)CNC(=O)[C@H](CO)NC(=O)CCSSCCNC1=O [S-B3-D2/13] | 119.049% |
| Cc1nnsc1C(=O)NCCC[C@@H]1NC(=O)c2ccc(cc2)CNC(=O)[C@H](CO)NC(=O)CCSSCCNC1=O [S-B3-D2/15] | 116.562% |
| O=C1CCSSCCNC(=O)[C@H](CCCNC(=O)c2ccco2)NC(=O)c2ccc(cc2)CNC(=O)[C@H](CO)N1 [S-B3-D2/16] | 114.086% |
| NCCC[C@@H]1NC(=O)c2ccc(cc2)CNC(=O)[C@H](CO)NC(=O)CCSSCCNC1=O [S-B3-D2/-] | 119.352% |
| O=C1CCSSCCNC(=O)[C@H](CCCCNC(=O)c2c[nH]c(=O)[nH]c2=O)NC(=O)c2cccc(c2)CNC(=O)[C@H](CO)N1 [S-B5-D1/11] | 117.639% |

Results, then the compound that gave them:

| percent residual thrombin activity | SMILES |
| --- | --- |
| 98.21% | CC(C)C[C@@H]1NC(=O)CCSSCCNC(=O)[C@H](CCCCNC(=O)c2c[nH]c(=O)cn2)NC(=O)C2(CC2)CNC1=O [L-B6-D1/9] |
| 94.7651% | CC(C)C[C@@H]1NC(=O)CCSSCCNC(=O)[C@H](CCCCNC(=O)c2ccc(Cl)s2)NC(=O)C2(CC2)CNC1=O [L-B6-D1/14] |
| 103.319% | CC(C)C[C@@H]1NC(=O)CCSSCCNC(=O)[C@H](CCCCN)NC(=O)C2(CC2)CNC1=O [L-B6-D1/-] |
| 107.685% | NC(=O)CC[C@@H]1NC(=O)CCSSCCNC(=O)[C@H](CCCCNC(=O)c2cnccn2)NC(=O)C2(CC2)CNC1=O [Q-B6-D1/2] |
| 108.88% | NC(=O)CC[C@@H]1NC(=O)CCSSCCNC(=O)[C@H](CCCCNC(=O)c2c[nH]c(=O)[nH]c2=O)NC(=O)C2(CC2)CNC1=O [Q-B6-D1/11] |
| 103.639% | NC(=O)CC[C@@H]1NC(=O)CCSSCCNC(=O)[C@H](CCCCNC(=O)Cc2c[nH]c3ccccc23)NC(=O)C2(CC2)CNC1=O [Q-B6-D1/12] |
| 99.4946% | NC(=O)CC[C@@H]1NC(=O)CCSSCCNC(=O)[C@H](CCCCNC(=O)c2ccc(Cl)s2)NC(=O)C2(CC2)CNC1=O [Q-B6-D1/14] |
| 113.771% | NC(=O)CC[C@@H]1NC(=O)CCSSCCNC(=O)[C@H]2CCCN(C2)C(=O)[C@H](CCCCNC(=O)c2c[nH]c(=O)[nH]c2=O)NC1=O [Q-D1-B4/11] |
| 109.426% | NC(=O)CC[C@@H]1NC(=O)CCSSCCNC(=O)[C@H]2CCCN(C2)C(=O)[C@H](CCCCNC(=O)c2ccc(Cl)s2)NC1=O [Q-D1-B4/14] |
